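All cell lines were grown in 96-well plates and treated with compound for 48 hours. GI50 marks 50% less growth.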 The source made the active and inactive calls. No stated cut-off is given here; in the data, active = GI50 up to about 1.1 µM and inactive = higher. Bounds are passed on as bounds.

Holding throughout (experiment): NCI-60 cell line screen, 48 h
Assay [1] deals with ACHN.
For assay [2], the system named is EKVX.
Assay [3] concerns HCT-15.
For assay [4], the system named is HL-60.
In assay [5] the test system is HOP-92.
In assay [6] the test system is IGROV-1.
In assay [7] the test system is MCF7.
Assay [8] has as its system MDA-N.
Assay [9] has as its system MOLT-4.
For assay [10], the system named is NCI-H522.
The test system of assay [11] is PC-3.
Assay [12] concerns SF-539.
In assay [13] the test system is SK-OV-3.
Assay [14] concerns SNB-19.
In assay [15] the test system is T47D.
Assay [16] has as its system TK-10.
The subject of assay [17] is A498.
Assay [18] relates to K562.
The subject of assay [19] is LOX IMVI.
For assay [20], the system named is OVCAR-3.

Turning to `NC(=O)CCC(CCC(N)=O)(CCC(N)=O)[N+](=O)[O-]`, the GI50 is > 100 µM (inactive) in [1]; > 100 µM (inactive) in assay [2]; greater than 100 µM in [3]; > 100 µM (inactive) in [4]; > 100 µM (inactive) in [5]; > 100 µM (inactive) in assay [6]. For the same molecule, the GI50 in assay [7] is > 100 µM (inactive); in assay [8], > 100 µM (inactive); in assay [9], > 100 µM (inactive); in assay [10], 65.9 µM (inactive); in [11] it was > 100 µM (inactive); in [12], > 100 µM (inactive). Also, the GI50 was > 100 µM (inactive) in assay [13], 60.8 µM (inactive) in assay [14], > 100 µM (inactive) in [15] and > 100 µM (inactive) in [16].
On to `COc1cc(NCCC(=O)O)c2ncccc2c1`, for which the GI50 in [17] was > 100 µM (inactive); in assay [1], > 100 µM (inactive); in assay [2] it was > 100 µM (inactive); in [3], greater than 100 µM; in assay [4], > 100 µM (inactive); in assay [5], > 100 µM (inactive). For the same molecule, the GI50 in assay [6], in assay [18], in assay [19], in assay [8], in assay [9] and in assay [10] was > 100 µM (inactive) throughout. Moreover, the GI50 in assay [20], in [11], in assay [14], in [15] and in assay [16] was > 100 µM (inactive) in each case.
With `O=S(=O)(O)c1ccc(O)c(/N=N/c2c(O)ccc3ccccc23)c1`, the GI50 in assay [17] was > 100 µM (inactive); in assay [2], > 100 µM (inactive); in assay [3] it was greater than 100 µM; in assay [5] it was > 100 µM (inactive); in assay [6], > 100 µM (inactive); in assay [18], > 100 µM (inactive). Besides, the GI50 was > 100 µM (inactive) in assay [19]; > 100 µM (inactive) in assay [8]; > 100 µM (inactive) in assay [9]; > 100 µM (inactive) in assay [10]; 34.6 µM (inactive) in assay [20]; > 100 µM (inactive) in assay [11]. For the same molecule, the GI50 in assay [13], in [14], in assay [15] and in assay [16] was > 100 µM (inactive) throughout.
For `CN(C)C(=O)Oc1ccc(C(=S)Nc2ccccc2)cc1Br`, the GI50 is 30.5 µM (inactive) in assay [1]; 32.5 µM (inactive) in assay [2]; 28.9 µM in [3]; 16.8 µM (inactive) in [4]; 21 µM (inactive) in [6]; 18.7 µM (inactive) in [18]. Moreover, the GI50 in assay [19] is 20.9 µM (inactive); in [7] it was 25.8 µM (inactive); in assay [8], 21.7 µM (inactive); in [9], 13.2 µM (inactive); in [10], 14.8 µM (inactive); in assay [20], 30.1 µM (inactive). Also, the GI50 is 27.7 µM (inactive) in assay [11]; 72.3 µM (inactive) in assay [12]; > 100 µM (inactive) in [13]; 74.6 µM (inactive) in assay [14]; 25 µM (inactive) in assay [15].
For `O=C(O)CCCc1nc2c(n1-c1ccccc1)C(=O)c1ccccc1C2=O`, the GI50 in [17] was > 100 µM (inactive); in [1], 68.1 µM (inactive); in assay [2], 62.8 µM (inactive); in assay [3] it was 74.5 µM; in assay [4], 37.4 µM (inactive); in assay [5], 49 µM (inactive). The GI50 in assay [6] was > 100 µM (inactive); in assay [18], 69.8 µM (inactive); in assay [19] it was > 100 µM (inactive); in [7], 32.6 µM (inactive); in assay [8], 43.5 µM (inactive); in assay [9] it was 68.4 µM (inactive). Also, the GI50 in assay [10] is 14.2 µM (inactive); in [20], 33.6 µM (inactive); in [12] it was 94 µM (inactive); in [13], > 100 µM (inactive); in [14] it was > 100 µM (inactive); in assay [15] it was > 100 µM (inactive). The GI50 in [16] is > 100 µM (inactive).
Take `Cc1cccc(C)c1NC(=S)NC=C1C(=O)c2ccccc2C1=O`: the GI50 in assay [1] was 5.19 µM (inactive); in [2], 9.82 µM (inactive); in assay [3], 7.35 µM; in [4], 2.45 µM (inactive); in [5], 12.5 µM (inactive); in assay [6] it was 6.95 µM (inactive). In addition, the GI50 is 3.61 µM (inactive) in assay [18]; 19.1 µM (inactive) in assay [19]; 4.59 µM (inactive) in assay [7]; 9.14 µM (inactive) in assay [8]; 0.75 µM (active) in assay [9]; 3.41 µM (inactive) in assay [10]. Besides, the GI50 was 5.38 µM (inactive) in assay [20]; 3.76 µM (inactive) in [11]; 11.2 µM (inactive) in assay [12]; 18.4 µM (inactive) in assay [13]; 18.2 µM (inactive) in assay [14]; 6.17 µM (inactive) in assay [15]. The GI50 in [16] is 6.73 µM (inactive).
For the molecule `O=C(O)c1oc(C(=O)O)c(C(=O)O)c1C(=O)O`, the GI50 in [17] is > 100 µM (inactive); in assay [1], > 100 µM (inactive); in assay [2] it was > 100 µM (inactive); in [3], greater than 100 µM; in assay [4] it was > 100 µM (inactive); in [5] it was > 100 µM (inactive). Moreover, the GI50 in assay [6], in assay [18], in assay [19], in assay [8], in [9] and in [10] was > 100 µM (inactive) in each case. For the same molecule, the GI50 in [20], in [11], in assay [14], in assay [15] and in [16] was > 100 µM (inactive) in each case.
In the case of `CCOC(=O)N/N=C(/N)c1cccc(Br)c1`, the GI50 in assay [1] was > 100 µM (inactive); in [2] it was 83 µM (inactive); in [3] it was greater than 100 µM; in [4], > 100 µM (inactive); in assay [6], > 100 µM (inactive); in [18], > 100 µM (inactive). Besides, the GI50 in assay [19], in assay [7], in assay [8], in assay [9], in [10] and in assay [20] was > 100 µM (inactive) in each case. Further, the GI50 in [11] was > 100 µM (inactive); in assay [12], > 100 µM (inactive); in assay [13], > 100 µM (inactive); in assay [14], 78.9 µM (inactive); in [15], > 100 µM (inactive); in [16] it was > 100 µM (inactive).
On to `COc1cc(-c2oc3c(OC)cc(OC)c(O)c3c(=O)c2OC)cc(OC)c1OC`, for which the GI50 in assay [1] is 8.49 µM (inactive); in assay [2] it was > 100 µM (inactive); in assay [4] it was > 100 µM (inactive); in assay [5], 15.6 µM (inactive); in assay [6], 85.5 µM (inactive); in assay [18], > 100 µM (inactive). In addition, the GI50 in assay [19] was 3.24 µM (inactive); in [7], 97.1 µM (inactive); in assay [8], > 100 µM (inactive); in assay [9], > 100 µM (inactive); in assay [10], 3.38 µM (inactive); in [20], 4.79 µM (inactive). Moreover, the GI50 in [11] is 9.57 µM (inactive); in assay [12], 8.57 µM (inactive); in assay [13], 3.29 µM (inactive); in [14], 3.82 µM (inactive); in assay [15], 3.76 µM (inactive); in assay [16], > 100 µM (inactive).
As to `C=C1[C@@H](OC(C)=O)[C@H]2[C@@H](OC(C)=O)[C@@](C)(OC(C)=O)C[C@]2(OC(C)=O)C(=O)[C@@H](C)/C=C/C(C)(C)C(=O)C[C@H]1OC(C)=O`, the GI50 in assay [1] is > 100 µM (inactive); in assay [2], 83.9 µM (inactive); in assay [3], greater than 100 µM; in assay [5] it was 79.3 µM (inactive); in [6] it was > 100 µM (inactive); in [18], > 100 µM (inactive). For the same molecule, the GI50 in [19] was > 100 µM (inactive); in assay [7], > 100 µM (inactive); in assay [8] it was > 100 µM (inactive); in assay [9], > 100 µM (inactive); in assay [10], 45.3 µM (inactive); in [20] it was 47.2 µM (inactive). In addition, the GI50 in assay [11], in assay [12], in [13], in assay [14], in assay [15] and in [16] was > 100 µM (inactive) in each case.
Consider `COC(=O)[C@@H](NS(=O)(=O)CC12CCC(CC1)C2(C)C)C(C)(C)C`, for which the GI50 is > 100 µM (inactive) in assay [17]; > 100 µM (inactive) in assay [1]; > 100 µM (inactive) in assay [2]; greater than 100 µM in [3]; > 100 µM (inactive) in assay [4]; > 100 µM (inactive) in assay [5]. Besides, the GI50 is > 100 µM (inactive) in assay [6]; > 100 µM (inactive) in assay [18]; > 100 µM (inactive) in assay [19]; > 100 µM (inactive) in assay [7]; > 100 µM (inactive) in assay [8]; 4.85 µM (inactive) in assay [9]. The GI50 in assay [10], in assay [20], in assay [12], in [13], in assay [14] and in assay [15] was > 100 µM (inactive) each time. Besides, the GI50 in assay [16] was > 100 µM (inactive).
